Measured values: patent US7038036B2, “Oligonucleotides labeled with stable isotopes and a method for detecting the same” (Taiyo Nippon Sanso Corporation, priority 1999, dated 2006)
“Also recorded” adds a separate entry of the source.

Assay: NMR detection of 13C/15N-labeled RNA in mouse serum sampled three hours after inoculation into the tail
Assay type: in vivo, mice (BALB/cAnNCr)
Conditions: for signals derived from base pairs, 500 MHz 1H-NMR spectra of exchangeable protons (imino protons) / signals derived from nucleic acid bases, 500 MHz 1H-NMR spectra of non-exchangeable protons (9 to 6.5 ppm): 25° C.
Protocol: Four female SPF/VAF mice (BALB/cAnNCr, 8 weeks old, No. 1 to No. 4) supplied by Charles River Japan, Inc. were used for the experiment.
The abovementioned oligonucleotide (5 mg) was dissolved in 120 μl of a physiological saline solution to prepare four […] samples. Two samples were administered without a drug delivery system. The abovementioned histone subunit mixture was added to the remaining two samples to form a complex. • Sample 1: ^13C—^15N-labeled RNA (inoculated into and sampled from No. 1 mouse) • Sample 2: ^13C—^15N-labeled RNA (inoculated into and sampled from No. 2 mouse) • Sample 3: the complex of ^13C—^15N-labeled RNA and the drug delivery system (inoculated into and sampled from No. 3 mouse) • Sample 4: the complex of ^13C—^15N-labeled RNA and the drug delivery system (inoculated into and sampled from No. 4 mouse)
Each sample solution (100 μl), which was adjusted to 62.5 mg/kg, was inoculated into the tail of the abovementioned mice. Three hours after the inoculation, the mice were anesthetized with ether and about 1 ml of whole blood was sampled from the heart. This whole blood was allowed to stand at room temperature for 30 minutes, and then centrifuged at 1,500 rpm at room temperature for 15 minutes. Supernatant serum obtained by the centrifugation was subjected to NMR measurement as follows. Heavy water (20 μl) was added to the samples (400 μl each) obtained by the abovementioned centrifugation, and the measurement of NMR spectra was carried out at 25° C. A DRX-500 NMR spectrometer (BRUKER) was used for the measurement. Pre-saturation was carried out for the measurement of non-exchangeable protons and jump-and-return pulses were used for the measurement of exchangeable imino proton spectra.

[1] = mouse serum, three hours after inoculation, 62.5 mg/kg, 62.5 mg/kg
[2] = mouse serum, three hours after inoculation, 62.5 mg/kg, listed as Sample 2, 62.5 mg/kg

Sample 1: oligonucleotide comprising 43 bases shown in SEQ ID No. 1, RNA labeled with 13C and 15N, administered without a drug delivery system (antisense GGGAGAGGGCAACCUGACCUGUUAUCAUCGCAAGAAGCUUCCG; RNA, phosphodiester; uniformly 13C/15N isotope-labeled ribonucleotides)
detection of the oligonucleotide by NMR (complex with the drug delivery system (histone subunit mixture) formed, mouse serum, three hours after inoculation): entire length of the oligonucleotide was detected | 13C-1H HMQC spectra of non-exchangeable protons (mouse serum, three hours after inoculation, 62.5 mg/kg): Only noise, and no spectrum derived from RNA | signals derived from base pairs, 500 MHz 1H-NMR spectra of exchangeable protons (imino protons) [1]: Absolutely no signal; also recorded: barely detected | signals derived from nucleic acid bases, 500 MHz 1H-NMR spectra of non-exchangeable protons (9 to 6.5 ppm) [1]: only extremely weak signals; also recorded: barely detected | signals derived from base pairs, 500 MHz 1H-NMR spectra of exchangeable protons (imino protons) [2]: Absolutely no signal; also recorded: barely detected | signals derived from nucleic acid bases, 500 MHz 1H-NMR spectra of non-exchangeable protons (9 to 6.5 ppm) [2]: only extremely weak signals; also recorded: barely detected | detection of the oligonucleotide by NMR (no complex with the drug delivery system formed, mouse serum, three hours after inoculation): barely detected | time the antisense chain existed in the blood (when the drug delivery system was used, mice): up to 3 hours | decomposition of the RNA present in the blood (when the drug delivery system was used, mice, three hours after inoculation): did not undergo partial decomposition
